Columns and labels:
Type in all cases: in vivo
[1] = test system: cocklebur (Xanthium strumarium); assay: Test C; set-up: key: 0 was no effect; 100 was complete control; settings: PREEMERGENCE
[2] = test system: wild poinsettia (Euphorbia heterophylla); assay: Test C; set-up: key: 0 was no effect; 100 was complete control; settings: PREEMERGENCE
[3] = test system: eastern black nightshade (Solanum ptycanthum); assay: Test C; settings: PREEMERGENCE
[4] = test system: ivyleaf morningglory (Ipomoea hederacea); assay: Test C; set-up: key: 0 was no effect; 100 was complete control; settings: PREEMERGENCE
[5] = test system: hairy beggarticks (Bidens pilosa); assay: Test C; set-up: key: 0 was no effect; 100 was complete control; settings: PREEMERGENCE
[6] = test system: large crabgrass (Digitaria sanguinalis); assay: Test C; set-up: key: 0 was no effect; 100 was complete control; settings: PREEMERGENCE
[7] = test system: giant foxtail (Setaria faberii); assay: Test C; set-up: key: 0 was no effect; 100 was complete control; settings: PREEMERGENCE
[8] = test system: barnyardgrass (Echinochloa crus-galli); assay: Test C; set-up: key: 0 was no effect; 100 was complete control; settings: PREEMERGENCE
[9] = test system: sandbur (Cenchrus echinatus); assay: Test E pre-/postemergence/post directed
Procedure, shortened: (§1)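 Greenhouse pots; compound in non-phytotoxic solvent with surfactant, sprayed preemergence within one day of planting, postemergence at two to four leaf stage (three to twenty cm), or post directed to plant base and soil. Visual injury rated 13 to 21 days after application, 0 (none) to 100 (complete control).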

[10] = test system: alexandergrass (Brachiaria plantaginea); assay: Test E pre-/postemergence/post directed
Procedure, shortened: as §1

[11] = test system: itchgrass (Rottboellia exaltata); assay: Test E pre-/postemergence/post directed
Procedure, shortened: as §1

[12] = test system: common ragweed (Ambrosia elatior); assay: Test E pre-/postemergence/post directed; settings: POSTEMERGENCE
Procedure, shortened: as §1

[13] = test system: johnson grass (Sorghum halepense); assay: Test E pre-/postemergence/post directed
Procedure, shortened: as §1

[14] = test system: bermudagrass (Cynodon dactylon); assay: Test E pre-/postemergence/post directed
Procedure, shortened: as §1

[15] = test system: large crabgrass (Digitaria sanguinalis); assay: Test E pre-/postemergence/post directed
Procedure, shortened: as §1

[16] = test system: surinam grass (Brachiaria decumbens); assay: Test E pre-/postemergence/post directed
Procedure, shortened: as §1

[17] = test system: Spanishneedles (Bidens bipinnata); assay: Test E pre-/postemergence/post directed
Procedure, shortened: as §1

[18] = test system: arrowleaf sida (Sida rhombifolia); assay: Test C; set-up: key: 0 was no effect; 100 was complete control; settings: PREEMERGENCE
[19] = test system: velvetleaf (Abutilon theophrasti); assay: Test C; set-up: key: 0 was no effect; 100 was complete control; settings: PREEMERGENCE
[20] = test system: redroot pigweed (Amaranthus retroflexus); assay: Test C; set-up: key: 0 was no effect; 100 was complete control; settings: PREEMERGENCE
[21] = test system: cotton (Gossypium hirsutum); assay: Test C; set-up: key: 0 was no effect; 100 was complete control; settings: PREEMERGENCE

Compound: Cc1cnc(-n2ccc(C(F)(F)F)n2)nc1Cc1cccc(C(F)(F)F)c1 [Example 2, 5-methyl-4-[[3-(trifluoromethyl)phenyl]methyl]-2-[3-(trifluoromethyl)-1H-pyrazol-1-yl]pyrimidine]
- Plant response rating, Cocklebur ([1]; Rate 35 g/ha): 0
- Plant response rating, Cocklebur ([1]; Rate 140 g/ha): 10
- Plant response rating, Wild poinsettia ([2]; Rate 35 g/ha): 0
- Plant response rating, Wild poinsettia ([2]; Rate 70 g/ha): 5
- Plant response rating, Wild poinsettia ([2]; Rate 140 g/ha): 45
- Plant response rating, E. blacknightsh ([3]; Rate 35 g/ha): 5
- Plant response rating, E. blacknightsh ([3]; Rate 70 g/ha): 5
- Plant response rating, E. blacknightsh ([3]; Rate 140 g/ha): 90
- Plant response rating, I. morningglory ([4]; Rate 35 g/ha): 0
- Plant response rating, I. morningglory ([4]; Rate 70 g/ha): 5
- Plant response rating, I. morningglory ([4]; Rate 140 g/ha): 5
- Plant response rating, H. beggarticks ([5]; Rate 35 g/ha): 40
- Plant response rating, H. beggarticks ([5]; Rate 70 g/ha): 40
- Plant response rating, H. beggarticks ([5]; Rate 140 g/ha): 100
- Plant response rating, Large crabgrass ([6]; Rate 35 g/ha): 0
- Plant response rating, Large crabgrass ([6]; Rate 70 g/ha): 5
- Plant response rating, Large crabgrass ([6]; Rate 140 g/ha): 100
- Plant response rating, Giant foxtail ([7]; Rate 35 g/ha): 0
- Plant response rating, Giant foxtail ([7]; Rate 70 g/ha): 5
- Plant response rating, Giant foxtail ([7]; Rate 140 g/ha): 100
- Plant response rating, Barnyardgrass ([8]; Rate 35 g/ha): 0
- Plant response rating, Barnyardgrass ([8]; Rate 70 g/ha): 5
- Plant response rating, Barnyardgrass ([8]; Rate 140 g/ha): 30
- Plant response rating, Sandbur ([9]; POSTEMERGENCE, Rate 64 g/ha): 10
- Plant response rating, Sandbur ([9]; POSTEMERGENCE, Rate 125 g/ha): 10
- Plant response rating, Sandbur ([9]; POSTEMERGENCE, Rate 250 g/ha): 50
- Plant response rating, Sandbur ([9]; POSTEMERGENCE, Rate 500 g/ha): 80
- Plant response rating, Sandbur ([9]; PREEMERGENCE, Rate 32 g/ha): 20
- Plant response rating, Sandbur ([9]; PREEMERGENCE, Rate 64 g/ha): 65
- Plant response rating, Sandbur ([9]; PREEMERGENCE, Rate 125 g/ha): 90
- Plant response rating, Alexandergrass ([10]; POSTEMERGENCE, Rate 32 g/ha): 20
- Plant response rating, Alexandergrass ([10]; POSTEMERGENCE, Rate 64 g/ha): 30
- Plant response rating, Alexandergrass ([10]; POSTEMERGENCE, Rate 125 g/ha): 30
- Plant response rating, Alexandergrass ([10]; POSTEMERGENCE, Rate 250 g/ha): 80
- Plant response rating, Alexandergrass ([10]; POSTEMERGENCE, Rate 500 g/ha): 95
- Plant response rating, Alexandergrass ([10]; PREEMERGENCE, Rate 32 g/ha): 50
- Plant response rating, Alexandergrass ([10]; PREEMERGENCE, Rate 64 g/ha): 90
- Plant response rating, Itchgrass ([11]; POSTEMERGENCE, Rate 32 g/ha): 40
- Plant response rating, Itchgrass ([11]; POSTEMERGENCE, Rate 64 g/ha): 40
- Plant response rating, Itchgrass ([11]; POSTEMERGENCE, Rate 125 g/ha): 75
- Plant response rating, Itchgrass ([11]; POSTEMERGENCE, Rate 250 g/ha): 90
- Plant response rating, Itchgrass ([11]; POSTEMERGENCE, Rate 500 g/ha): 95
- Plant response rating, Itchgrass ([11]; PREEMERGENCE, Rate 32 g/ha): 70
- Plant response rating, Itchgrass ([11]; PREEMERGENCE, Rate 64 g/ha): 75
- Plant response rating, Itchgrass ([11]; PREEMERGENCE, Rate 125 g/ha): 75
- Plant response rating, Itchgrass ([11]; PREEMERGENCE, Rate 250 g/ha): 95
- Plant response rating, Com. ragweed ([12]; Rate 32 g/ha): 50
- Plant response rating, Com. ragweed ([12]; Rate 125 g/ha): 75
- Plant response rating, Com. ragweed ([12]; Rate 250 g/ha): 75
- Plant response rating, Com. ragweed ([12]; Rate 500 g/ha): 75
- Plant response rating, Johnsongrass ([13]; POSTEMERGENCE, Rate 32 g/ha): 10
- Plant response rating, Johnsongrass ([13]; POSTEMERGENCE, Rate 64 g/ha): 60
- Plant response rating, Johnsongrass ([13]; POSTEMERGENCE, Rate 125 g/ha): 60
- Plant response rating, Johnsongrass ([13]; POSTEMERGENCE, Rate 250 g/ha): 80
- Plant response rating, Johnsongrass ([13]; POSTEMERGENCE, Rate 500 g/ha): 95
- Plant response rating, Johnsongrass ([13]; PREEMERGENCE, Rate 32 g/ha): 65
- Plant response rating, Johnsongrass ([13]; PREEMERGENCE, Rate 64 g/ha): 98
- Plant response rating, Johnsongrass ([13]; PREEMERGENCE, Rate 125 g/ha): 85
- Plant response rating, Bermudagrass ([14]; POSTEMERGENCE, Rate 32 g/ha): 10
- Plant response rating, Bermudagrass ([14]; POSTEMERGENCE, Rate 64 g/ha): 20
- Plant response rating, Bermudagrass ([14]; POSTEMERGENCE, Rate 125 g/ha): 35
- Plant response rating, Bermudagrass ([14]; POSTEMERGENCE, Rate 250 g/ha): 50
- Plant response rating, Bermudagrass ([14]; POSTEMERGENCE, Rate 500 g/ha): 75
- Plant response rating, Bermudagrass ([14]; PREEMERGENCE, Rate 32 g/ha): 98
- Plant response rating, Large crabgrass ([15]; POSTEMERGENCE, Rate 32 g/ha): 35
- Plant response rating, Large crabgrass ([15]; POSTEMERGENCE, Rate 64 g/ha): 35
- Plant response rating, Large crabgrass ([15]; POSTEMERGENCE, Rate 125 g/ha): 75
- Plant response rating, Large crabgrass ([15]; POSTEMERGENCE, Rate 250 g/ha): 80
- Plant response rating, Large crabgrass ([15]; POSTEMERGENCE, Rate 500 g/ha): 90
- Plant response rating, Large crabgrass ([15]; PREEMERGENCE, Rate 32 g/ha): 98
- Plant response rating, Surinam grass ([16]; POSTEMERGENCE, Rate 32 g/ha): 35
- Plant response rating, Surinam grass ([16]; POSTEMERGENCE, Rate 64 g/ha): 50
- Plant response rating, Surinam grass ([16]; POSTEMERGENCE, Rate 125 g/ha): 50
- Plant response rating, Surinam grass ([16]; POSTEMERGENCE, Rate 250 g/ha): 70
- Plant response rating, Surinam grass ([16]; POSTEMERGENCE, Rate 500 g/ha): 80
- Plant response rating, Surinam grass ([16]; PREEMERGENCE, Rate 32 g/ha): 50
- Plant response rating, Surinam grass ([16]; PREEMERGENCE, Rate 64 g/ha): 90
- Plant response rating, Spanishneedles ([17]; POSTEMERGENCE, Rate 32 g/ha): 60
- Plant response rating, Spanishneedles ([17]; POSTEMERGENCE, Rate 64 g/ha): 60
- Plant response rating, Spanishneedles ([17]; POSTEMERGENCE, Rate 125 g/ha): 40
- Plant response rating, Spanishneedles ([17]; POSTEMERGENCE, Rate 500 g/ha): 70
- Plant response rating, Spanishneedles ([17]; PREEMERGENCE, Rate 32 g/ha): 80
- Plant response rating, Arrowleaf sida ([18]; Rate 35 g/ha): 10
- Plant response rating, Arrowleaf sida ([18]; Rate 70 g/ha): 20
- Plant response rating, Arrowleaf sida ([18]; Rate 140 g/ha): 100
- Plant response rating, Velvetleaf ([19]; Rate 35 g/ha): 0
- Plant response rating, Velvetleaf ([19]; Rate 70 g/ha): 5
- Plant response rating, Velvetleaf ([19]; Rate 140 g/ha): 50
- Plant response rating, Redroot pigweed ([20]; Rate 35 g/ha): 5
- Plant response rating, Redroot pigweed ([20]; Rate 70 g/ha): 5
- Plant response rating, Redroot pigweed ([20]; Rate 140 g/ha): 100
- Plant response rating, Cotton ([21]; Rate 35 g/ha): 0
- Plant response rating, Cotton ([21]; Rate 70 g/ha): 5
- Plant response rating, Cotton ([21]; Rate 140 g/ha): 15

— patent US6525001B1, “Substituted pyrimidine and pyridine herbicides” (Mid-American Commercialization Corporation, priority 1997, dated 2003)
